According to patent publication US20260232824A1, “ANTI-CD180 BINDING MOLECULES AND USES THEREOF” (Champions Oncology, Inc., priority 2023, published 2026):

How the values were obtained:
[1] = system: panel of cancer cell lines; conditions: cited from earlier work
[2] = molecular target: T1, CD19 (Homo sapiens, UniProt P15391); assay: CD19 expression versus in vitro activity of comparative ADC; format: cell-based; conditions: FIG. 27A
T1 construct: endogenous in cells
T1 sequence (P15391 20-556): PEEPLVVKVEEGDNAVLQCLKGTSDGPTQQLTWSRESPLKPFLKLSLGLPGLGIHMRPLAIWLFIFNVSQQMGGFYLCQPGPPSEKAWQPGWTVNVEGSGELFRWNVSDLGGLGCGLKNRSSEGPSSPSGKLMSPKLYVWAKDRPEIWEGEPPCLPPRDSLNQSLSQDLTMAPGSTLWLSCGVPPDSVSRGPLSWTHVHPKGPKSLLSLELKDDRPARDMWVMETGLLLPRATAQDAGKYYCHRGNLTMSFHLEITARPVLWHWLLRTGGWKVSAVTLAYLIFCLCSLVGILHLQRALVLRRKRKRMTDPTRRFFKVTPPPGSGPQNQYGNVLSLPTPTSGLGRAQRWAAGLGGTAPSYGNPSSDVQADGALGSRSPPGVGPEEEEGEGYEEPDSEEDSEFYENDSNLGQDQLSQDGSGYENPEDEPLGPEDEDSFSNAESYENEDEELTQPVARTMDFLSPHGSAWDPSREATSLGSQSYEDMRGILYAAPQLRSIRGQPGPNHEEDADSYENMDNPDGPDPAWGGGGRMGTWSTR

| Compound | activity in a panel of cancer cell lines [1] | correlation of CD19 expression with in vitro activity [2] |
| --- | --- | --- |
| COc1cc2c(cc1OCCCCCOc1cc3c(cc1OC)C(=O)N1C=C(C)C[C@H]1C=N3)N=C[C@@H]1CC(C)=CN1C2=O [SG3199] | picomolar activity | – |
| Lonca Tesirine: loncastuximab tesirine-lpyl | – | CD19 expression correlated with in vitro activity |
